Measurements taken from patent US20230348852A1, “METHODS AND COMPOSITIONS FOR OCULAR CELL THERAPY” (NOVARTIS AG, priority 2020, published 2023).

Assays:
[1] = system: YAP; experiment: Intracellular YAP distribution by immunohistochemistry in LSCs exposed to LATS inhibitors; format: cell-based, human; conditions: 10 micromolar, 24 hours, compared with DMSO control
Method: Cells were cultured under these conditions for 24 hours at 37° C. in 5% CO2.
To measure the effect of the LATS inhibitors on the downstream target YAP, intracellular YAP distribution was analyzed by immunohistochemistry. Cell cultures were fixed with 4% PFA for 20 minutes, permeabilized and blocked in a blocking solution of 0.3% Triton X-100 (Sigma-Aldrich) and 3% donkey serum in PBS for 30 minutes. Cells were then labeled with primary antibody in the blocking solution for 12 hours at 4° C. Primary antibody used was anti-YAP from Santa Cruz Biotechnology. Samples were washed in PBS three times and donkey-raised secondary antibody Alexa Fluor 488 (Molecular Probes) at 1:500 dilution were applied for 30 minutes at room temperature. […] Fluorescence was observed using a Zeiss LSM 880 confocal microscope.

[2] = system: phospho-YAP (ser127); experiment: YAP phosphorylation by Western blot in LSCs exposed to LATS inhibitors; format: cell-based, human; conditions: 10 micromolar, 1 hour, DMSO as negative control
Method: The medium was then replaced by fresh limbal epithelium cell culture medium (DMEM F12 supplemented with 10% human serum and 1.3 mM calcium chloride) supplemented with LATS inhibitor compound example no. […] Cells were cultured under these conditions for 1 hour at 37° C. in 5% CO2.
To measure the effect of the LATS inhibitors on the downstream target YAP, the YAP phosphorylation levels were measured by western blot as follows. The cell pellets were obtained by trypsin dissociation and centrifugation and washed with PBS. The pellets were lysed with 30 microlitres of RIPA lysis buffer containing protease inhibitor cocktail (Life Technologies) for 30 minutes, with vortexing every 10 minutes. The cell debris were then pelleted at 4° C. for 15 minutes at 14 k rpm and the protein lysate was collected. Protein concentration was quantified using a micro BCA kit (Pierce). Fifteen micrograms of total protein was loaded in each well of 4-20% TGX gels (BioRad) and Western blotting was performed according to the manufacturer’s instructions. […] Membranes were stained with HRP-conjugated secondary antibodies, rinsed and imaged using a ChemiDoc system (Biorad) according to the manufacturer’s instructions.

[3] = system: human limbal stem cells; experiment: Human limbal stem cell population expansion and immunohistochemical observation of p63alpha phenotype; format: cell-based; conditions: for colony formation and p63alpha expression: 10 micromolar, 6 days after isolation without passaging, DMSO as negative control
Method: Cells were first cultured at 37° C. in 5% CO2 for 6 days after isolation without passaging (FIGS. 2A, 2B and 2C).
To evaluate the ability of the compounds to enable LSC expansion after two passages, LSCs were passaged and cultured for two weeks in the presence of compound example 3 to enable expansion (FIG. 2D). Limbal stem cells (LSCs) were passaged by treating cultures with Accutase for 10 minutes at 37° C., rinsing the cell suspension by centrifugation and plating cells in fresh LSC culture medium supplemented with LATS inhibitor compound example 3.
In order to observe that the expanded cell population expressed p63alpha, this was measured by immunohistochemistry as follows. Cell cultures were fixed with 4% PFA for 20 minutes, permeabilized and blocked in a blocking solution of 0.3% Triton X-100 (Sigma-Aldrich) and 3% donkey serum in PBS for 30 minutes. Cells were then labeled with primary antibody in the blocking solution for 12 hours at 4° C. Primary antibody used was p63alpha from Cell Signalling. Samples were washed in PBS three times and donkey-raised secondary antibody Alexa Fluor 488 (Molecular Probes) at 1:500 dilution were applied for 30 minutes at room temperature. Cells were counter-stained with a human nuclear antigen antibody (Millipore) at a 1:500 dilution in order to label all cells in the culture and confirm their human identity. […] Fluorescence was observed using a Zeiss LSM 880 confocal microscope.

[4] = system: human limbal stem cells; experiment: Human limbal stem cell population expansion and measurement (expansion factor, p63alpha-positive cells); format: cell-based; conditions: 10 micromolar in XVIVO15 medium, two passages; for Expansion factor: ratio of expanded population to seeded cells; for Percentage of p63a-positive cells: share of Sytox Orange-positive nuclei expressing p63alpha
Method: Cells were cultured at 37° C. in 5% CO2.
For each compound, two sets of cultures were generated. A first set of cultures was fixed in 4% PFA for 20 minutes at room temperature after cells isolated from the cornea had attached to the cell culture dish (typically 24 h after cell plating). A second set of cultures was fixed in 4% PFA for 20 minutes at room temperature after being cultured for two passages. Cells were passaged when they reached 90-100% confluence.
In order to observe that the expanded cell population expressed p63alpha, this was measured by immunohistochemistry as follows. The fixed cell cultures were permeabilized and blocked in a blocking solution of 0.3% Triton X-100 (Sigma-Aldrich) and 3% donkey serum in PBS for 30 minutes. Cells were then labeled with primary antibody in the blocking solution for 12 hours at 4° C. Primary antibody used was p63alpha from Cell Signalling. Samples were washed in PBS three times and donkey-raised secondary antibody Alexa Fluor 488 (Molecular Probes) at 1:500 dilution were applied for 30 minutes at room temperature. Cell nuclei were then labeled in a solution of 0.5 micromolar of Sytox Orange (ThermoFisher) in PBS for 5 minutes at room temperature.
To evaluate the percentage of p63alpha-positive cells, the number of cells labeled by the anti-p63alpha antibody was counted and the total number of cells was determined by counting the number of nuclei stained by Sytox Orange. The proportion of p63alpha-positive cells was then determined by calculating the percentage of Sytox-orange-positive nuclei that also expressed p63alpha.
To evaluate cell expansion ratios, nuclei were counted using a Zeiss LSM 880 confocal microscope. The expansion factor was then determined by calculating the ratio of the expanded population of cells to population of seeded cells.

[5] = system: human B2M; experiment: CRISPR/Cas9-mediated deletion of B2M in HEK293 (lipofection, FACS); format: cell-based; conditions: lipofection of tracrRNA, gRNA and Cas9 mRNA; FACS after 72 h
Method: One day before transfection, 500′000 HEK293cells (ATCC, Manassas, VA) were plated in a 35 mm dish and grown in DMEM/10%FBS. The following day, cells were transfected with a mixture of tracrRNA-gRNA-Cas9 mRNA. A stock of 10 micromolar was prepared resuspending 20 nanomoles of gRNA and 20 nanomoles tracrRNA in 2000 microlitre 10 millimolar Tris buffer pH7.4 each.
The mixture was added drop wise to the culture dish in 2.5 ml DMEM/10%FBS medium. The transfection reagent alone represented the transfection negative control.
After 6 h incubation in 5% CO2 at 37° C. medium was replaced with fresh DMEM/10%FBS medium. After 72 h in a 5% CO2 incubator cells were prepared for FACS analysis. FACS analysis: HEK293 cells were treated with Accutase (ThermoFisher, Cat # A1110501) for 20 minutes in 5% CO2 at 37° C. The reaction was stopped by using cell culture medium containing 10% Serum and transferred to a falcon tube for a centrifugation step (1000 rpm, 5 minutes). After aspirating the medium cells were resuspended in 200 microlitre FACS buffer (PBS/10%FBS).
To analyze the expression of B2M and HLA-ABC, 5 microlitre APC mouse anti-human β2-microglobulin antibody (Biolegend, Cat #316312) and 20 microlitre PE mouse anti-human HLA-ABC antibody (BD Bioscience, Cat # 560168) were added to the cell suspension and incubated for 30 minutes on ice. Cells were washed 3 times after antibody labelling with FACS buffer and resuspended in 500 microlitre in FACS buffer.
Each sample was transferred to one well of a round bottom 96 well plate and analyzed on a BD LSRFortessa X-20 device. FACS data were analyzed using BD FACSDiva software.

[6] = system: B2M; experiment: sgRNA screening for B2M knockout in LSCs (nucleofection, FACS); format: cell-based, human; conditions: Cas9 protein SEQ ID NO: 106, LSCs at passage 3, FACS after around 3 days
Method: Cells were cultured under these conditions for 24-48 hours at 37° C. in 5% CO2.
LSCs were nuclofected with selected gRNAs (Table 6) followed by FACS analysis / MACS separation.
After scraping the cells, the reaction was stopped by using cell culture medium containing 10% Serum and transferred to a falcon tube. After counting cells using Vi-cell 300′000 cells were prepared per reaction by transferring 300′000 cells in single tubes and centrifuged at 1000 rpm for 5 min. The supernatant was aspirated using manually pipetting to avoid cell loss and the cells were resuspended in the Stem cell nucleofector solution II (Lonza, Cat #VPH-5022). Resuspend cells in nucleofector solution immediately before adding the Cas9 RNP:sgRNA mixture. To obtain the nucleofection mixture, 5 µg high concentrated (≥5 µg/µl) Cas9 protein of SEQ ID NO: 106 (volume = 0.78 µl) was mixed with 19.5 µg sgRNA of Table 6 (volume = 12.2 µl) and incubated for 20 min at room temperature. […] The Cas9 protein-guideRNA complex was added to the cell suspension and transferred to the electroporation cuvette immediately. Cells were transfected using the nucelofector device (Lonza, Amaxa Nucleofector II) and program A023. After nucleofection cells were transferred from cuvette to one well of a 24 well synthemax coated plate containing pre-warmed LSC medium including 3 µM LATS compound and 10 µM Rock inhibitor Y-27632 (Nature 1997, vol. 389, pp. 990-994). Incubate LSCs in a 5% CO2 incubator for around 3 days until cells are 90% confluent.
LSCs were treated with TryLE®Express Enzym (ThermoFisher, Cat #12605010) for 15 minutes in 5% CO2 at 37° C. After scraping the cells, the reaction was stopped by using cell culture medium containing 10% Serum and transferred to a falcon tube for a centrifugation step (1000 rpm, 5 minutes). After aspirating the medium cells were resuspended in 200 µl FACS buffer (PBS/10%FBS).
To analyze the expression of B2M and HLA-ABC, 5 µl APC mouse anti-human β2-microglobulin antibody (Biolegend, Cat#316312) and 20 µl PE mouse anti-human HLA-ABC antibody (BD Bioscience, Cat # 560168) were added to the cell suspension and incubated for 30 minutes on ice.
Cells were washed 3 times after antibody labelling with FACS buffer and resuspended in 200 µl in FACS buffer (depending on the cell number).
FACS data were analyzed using BD FACSDiva software and FlowJo software.

[7] = system: genomic DNA purified from male human peripheral blood mononuclear cells; experiment: Biochemical assay for potential off-target genomic sites cleaved by Cas9 and B2M guides; conditions: number of potential off-target sites, guide concentration 64 nM
Method: A biochemical method (See, e.g., Cameron et al., Nature Methods. 6, 600-606; 2017) was used to determine potential off-target genomic sites cleaved by Cas9 and selected B2M guides. Guides showing B2M indel activity were tested for potential off-target genomic cleavage sites with this assay. […] The number of potential off-target sites detected using a guide concentration of 64 nM in the biochemical assay are shown in Table 10. As a result of this analysis, several gRNAs were selected for analysis of potential off-target activity in limbal stem cells.

[8] = system: B2M; experiment: Targeted PCR and NGS (amplicon sequencing) of on-target and off-target sites in genome-edited LSCs; format: cell-based, human; conditions: for Number of sites positive for off-target activity in LSCs: of the potential off-target loci sequenced; for B2M purified rhAmpSeq indel: purified (B2M negative) LSC populations
Method: Potential CRISPR/Cas9-mediated cutting sites identified above were evaluated using targeted PCR and NGS in genome-edited expanded LSCs.
Selected sgRNAs (SEQ ID NO: 120, 162, 166, 167, 171, and 175) were further analyzed by amplicon sequencing in edited and non-edited cells. Primers flanking the potential off-target sites for each guide were used to detect indels by NGS analysis in edited LSCs and non-edited peripheral blood mononuclear cells. Sites that had either (1) a difference in mean indel percentage between edited and unedited cells greater than 0.5%; or (2) a p value less than 0.05 between edited and unedited indel were further analyzed. NGS sequence reads for such sites were assessed for characteristic indel patterns near the putative Cas9 cut site. Based on the results, we could assess the specificity of gRNAs and their suitability for therapeutic applications.

| Molecule | YAP immunostaining in the nucleus of LSCs [1] | YAP phosphorylation levels in human LSCs (Western blot) [2] | YAP phosphorylation levels in human LSCs (Western blot) ([2]; listed as ex. 3) | colony formation and p63alpha expression [3] | cell population expansion and p63alpha expression after passaging ([3]; passaged and cultured for two weeks in the presence of the compound) | Expansion factor [4] | Percentage of p63a-positive cells [4] | YAP phosphorylation levels in human LSCs (Western blot) ([2]; listed as ex. 4) | B2M knockout efficiency in HEK293 [5] | B2M knockout efficiency in LSCs after nucleofection [6] | off-target Site_ Count [7] | validated indels for off-target activity in LSCs ([8]; amplicon sequencing of potential off-target loci) | Number of sites positive for off-target activity in LSCs [8] | Number of sites positive for off-target activity in LSCs ([8]; listed as SEQ ID NO: 167) | B2M purified rhAmpSeq indel [8] | B2M purified rhAmpSeq indel ([8]; listed as SEQ ID NO: 167) |
| --- | --- | --- | --- | --- | --- | --- | --- | --- | --- | --- | --- | --- | --- | --- | --- | --- |
| CC(C)(O)CC(C)(C)Nc1nc(-c2ccncc2)nc2cnccc12 [Example 3, 2,4-dimethyl-4-{[2-(pyridin-4-yl)pyrido[3,4-d]pyrimidin-4-yl]amino}pentan-2-ol] | stronger in the nucleus | reduction in YAP phosphorylation levels | induce YAP dephosphorylation in LSCs within one hour | formed colonies and expressed p63alpha | enabled cell population expansion and the formation of confluent cultures expressing p63alpha | 2029 | 92% |  |  |  |  |  |  |  |  |  |
| Cc1n[nH]cc1-c1nc(NC2(C)CC2)c2ccncc2n1 [Example 4, 2-(3-methyl-1H-pyrazol-4-yl)-N-(1-methylcyclopropyl)pyrido[3,4-d]pyrimidin-4-amine] | stronger in the nucleus | reduction in YAP phosphorylation levels |  | formed colonies and expressed p63alpha |  | 1205 | 89% | induce YAP dephosphorylation in LSCs within one hour |  |  |  |  |  |  |  |  |
| 9-HEYJA000005: gRNA targeting human B2M; targeting domain SEQ ID NO: 116; sgRNA SEQ ID NO: 167 (nucleic acid, listed as RNA, chemistry not given here) guide: UCACGUCAUCCAGCAGAGAAGUUUUAGAGCUAGAAAUAGCAAGUUAAAAUAAGGCUAGUCCGUUAUCAACUUGAAAAAGUGGCACCGAGUCGGUGCUUUU |  |  |  |  |  |  |  |  | 39% | 12% | 35 | zero | 0 of 35 | no predicted sites tested positive for off-target activity | 99.80±0.26% | ~ 99% |
